In PubChem BioAssay AID1963448 (Molecular Pharmacology Branch, DTP, NCI, 2024):

System: 616215-338-R-J1-PDC complex spheroid growth, % test/control
Assay: Anticancer human tumor 616215-338-R-J1-PDC patient-derived colon adenocarcinoma cell line growth inhibition [Asc]
Details: for IC50: curve of first compound; for viability, T/C: stronger effect = lower value
Method in brief: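 Tumor cells were grown as complex spheroids with human endothelial cells (HUVEC) and human mesenchymal stem cells as stroma. Agents were tested alone and in combination, in half-log steps down from the clinical Cmax, or from 10 microM where Cmax was unknown.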

[1] = second compound 0.03 µM, first compound 0.00316 µM
[2] = second compound 0.03 µM, first compound 0.01 µM
[3] = second compound 0.03 µM, first compound 0.0316 µM
[4] = second compound 0.03 µM, first compound 0.1 µM
[5] = second compound 0.0949 µM, first compound 0.00316 µM
[6] = second compound 0.0949 µM, first compound 0.01 µM
[7] = second compound 0.0949 µM, first compound 0.0316 µM
[8] = second compound 0.0949 µM, first compound 0.1 µM
[9] = second compound 0.3 µM, first compound 0.00316 µM
[10] = second compound 0.3 µM, first compound 0.01 µM
[11] = second compound 0.3 µM, first compound 0.0316 µM
[12] = second compound 0.3 µM, first compound 0.1 µM
[13] = second compound 0.949 µM, first compound 0.00316 µM
[14] = second compound 0.949 µM, first compound 0.01 µM
[15] = second compound 0.949 µM, first compound 0.0316 µM
[16] = second compound 0.949 µM, first compound 0.1 µM
[17] = second compound 3 µM, first compound 0.00316 µM
[18] = second compound 3 µM, first compound 0.01 µM
[19] = second compound 3 µM, first compound 0.0316 µM
[20] = second compound 3 µM, first compound 0.1 µM
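Also: spheroids exposed to agents for seven days before readout.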
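For viability, T/C in this document: 100% = DMSO vehicle control viability.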

COc1c(OCCCN2CCOCC2)ccc2c3n(c(=NC(=O)c4cnc(N)nc4)nc12)CCN3 + CCN1C(C(=O)NC23CCC(C(=O)O)(CC2)CC3)C(c2cccc(Cl)c2F)C2(C(=O)Nc3cc(Cl)ccc32)C12CCCCC2
IC50 (second compound 0.03 µM): 153 nM
IC50 (second compound 0.0949 µM): 73.4 nM
IC50 (second compound 0.3 µM): 21.9 nM
IC50 (second compound 0.949 µM): 9.45 nM
IC50 (second compound 3 µM): < 3.16 nM
viability, T/C [1]: 95.7%
viability, T/C [2]: 99.4%
viability, T/C [3]: 99.7%
viability, T/C [4]: 63.6%
viability, T/C (second compound 0.03 µM, first compound 0.316 µM): 26%
viability, T/C (second compound 0.03 µM, first compound 1 µM): 13.1%
viability, T/C [5]: 89.3%
viability, T/C [6]: 81.2%
viability, T/C [7]: 74.2%
viability, T/C [8]: 41%
viability, T/C (second compound 0.0949 µM, first compound 0.316 µM): 15.2%
viability, T/C (second compound 0.0949 µM, first compound 1 µM): 6.02%
viability, T/C [9]: 59.7%
viability, T/C [10]: 59.2%
viability, T/C [11]: 46%
viability, T/C [12]: 23.4%
viability, T/C (second compound 0.3 µM, first compound 0.316 µM): 9.03%
viability, T/C (second compound 0.3 µM, first compound 1 µM): 3.12%
viability, T/C [13]: 55.1%
viability, T/C [14]: 47%
viability, T/C [15]: 38.4%
viability, T/C [16]: 14%
viability, T/C (second compound 0.949 µM, first compound 0.316 µM): 5.66%
viability, T/C (second compound 0.949 µM, first compound 1 µM): 1.65%
viability, T/C [17]: 45.7%
viability, T/C [18]: 40.4%
viability, T/C [19]: 27.4%
viability, T/C [20]: 7.37%
viability, T/C (second compound 3 µM, first compound 0.316 µM): 3.24%
viability, T/C (second compound 3 µM, first compound 1 µM): 0.71%

NC(=O)C(=Cn1cnc(-c2cc(C(F)(F)F)cc(C(F)(F)F)c2)n1)c1cncnc1 + CCN1C(C(=O)NC23CCC(C(=O)O)(CC2)CC3)C(c2cccc(Cl)c2F)C2(C(=O)Nc3cc(Cl)ccc32)C12CCCCC2
IC50 (second compound 0.03 µM): > 300 nM
IC50 (second compound 0.0949 µM): 77.4 nM
IC50 (second compound 0.3 µM): 6.42 nM
IC50 (second compound 0.949 µM): < 0.949 nM
IC50 (second compound 3 µM): < 0.949 nM
viability, T/C (second compound 0.03 µM, first compound 0.000949 µM): 89.7%
viability, T/C (second compound 0.03 µM, first compound 0.003 µM): 93.4%
viability, T/C (second compound 0.03 µM, first compound 0.00949 µM): 88.1%
viability, T/C (second compound 0.03 µM, first compound 0.03 µM): 83.7%
viability, T/C (second compound 0.03 µM, first compound 0.0949 µM): 73.8%
viability, T/C (second compound 0.03 µM, first compound 0.3 µM): 56.2%
viability, T/C (second compound 0.0949 µM, first compound 0.000949 µM): 84.4%
viability, T/C (second compound 0.0949 µM, first compound 0.003 µM): 85.4%
viability, T/C (second compound 0.0949 µM, first compound 0.00949 µM): 75.5%
viability, T/C (second compound 0.0949 µM, first compound 0.03 µM): 61.3%
viability, T/C (second compound 0.0949 µM, first compound 0.0949 µM): 48.8%
viability, T/C (second compound 0.0949 µM, first compound 0.3 µM): 28.9%
viability, T/C (second compound 0.3 µM, first compound 0.000949 µM): 60%
viability, T/C (second compound 0.3 µM, first compound 0.003 µM): 57.2%
viability, T/C (second compound 0.3 µM, first compound 0.00949 µM): 48.2%
viability, T/C (second compound 0.3 µM, first compound 0.03 µM): 32.6%
viability, T/C (second compound 0.3 µM, first compound 0.0949 µM): 24.9%
viability, T/C (second compound 0.3 µM, first compound 0.3 µM): 6.51%
viability, T/C (second compound 0.949 µM, first compound 0.000949 µM): 49.2%
viability, T/C (second compound 0.949 µM, first compound 0.003 µM): 48.9%
viability, T/C (second compound 0.949 µM, first compound 0.00949 µM): 35.5%
viability, T/C (second compound 0.949 µM, first compound 0.03 µM): 11.2%
viability, T/C (second compound 0.949 µM, first compound 0.0949 µM): 3.85%
viability, T/C (second compound 0.949 µM, first compound 0.3 µM): 0.63%
viability, T/C (second compound 3 µM, first compound 0.000949 µM): 39.3%
viability, T/C (second compound 3 µM, first compound 0.003 µM): 32.4%
viability, T/C (second compound 3 µM, first compound 0.00949 µM): 17.5%
viability, T/C (second compound 3 µM, first compound 0.03 µM): 3.73%
viability, T/C (second compound 3 µM, first compound 0.0949 µM): 1.87%
viability, T/C (second compound 3 µM, first compound 0.3 µM): 0.41%

NC1CCC(NC2CC2c2ccccc2)CC1 (stereo not given) + CCN1C(C(=O)NC23CCC(C(=O)O)(CC2)CC3)C(c2cccc(Cl)c2F)C2(C(=O)Nc3cc(Cl)ccc32)C12CCCCC2
IC50 (second compound 0.03 µM): > 100 nM
IC50 (second compound 0.0949 µM): > 100 nM
IC50 (second compound 0.3 µM): > 100 nM
IC50 (second compound 0.949 µM): > 100 nM
IC50 (second compound 3 µM): > 100 nM
viability, T/C (second compound 0.03 µM, first compound 0.000316 µM): 106%
viability, T/C (second compound 0.03 µM, first compound 0.001 µM): 98.2%
viability, T/C [1]: 99.7%
viability, T/C [2]: 104%
viability, T/C [3]: 100%
viability, T/C [4]: 103%
viability, T/C (second compound 0.0949 µM, first compound 0.000316 µM): 95.5%
viability, T/C (second compound 0.0949 µM, first compound 0.001 µM): 100%
viability, T/C [5]: 91.3%
viability, T/C [6]: 91.7%
viability, T/C [7]: 93.8%
viability, T/C [8]: 95.2%
viability, T/C (second compound 0.3 µM, first compound 0.000316 µM): 68.9%
viability, T/C (second compound 0.3 µM, first compound 0.001 µM): 67.6%
viability, T/C [9]: 73%
viability, T/C [10]: 65.9%
viability, T/C [11]: 62.4%
viability, T/C [12]: 68%
viability, T/C (second compound 0.949 µM, first compound 0.000316 µM): 73.4%
viability, T/C (second compound 0.949 µM, first compound 0.001 µM): 72.2%
viability, T/C [13]: 83.7%
viability, T/C [14]: 71.7%
viability, T/C [15]: 70.1%
viability, T/C [16]: 72.7%
viability, T/C (second compound 3 µM, first compound 0.000316 µM): 54.6%
viability, T/C (second compound 3 µM, first compound 0.001 µM): 58.9%
viability, T/C [17]: 58.2%
viability, T/C [18]: 62.9%
viability, T/C [19]: 51%
viability, T/C [20]: 54.3%
